{"source": "patent US9629848B2", "about": "“Compounds that modulate autoimmunity and methods of using the same” (The Regents of the University of Colorado, a body corporate, priority 2011, dated 2017)", "key": {"[1]": {"tested_on": "isolated whole islets from an adult non-diabetic NOD mouse", "test": "TCR response to isolated whole islets", "assay_type": "cell-based", "conditions": "islets containing beta cells", "protocol": "(§1) The ability of the small molecules to block endogenous insulin presentation was tested. Incubation of whole insulin with I-A^g^7 containing splenocytes activates 5KC cells (T cell hybridoma lacking endogenous TCRα and β chains) transduced with a 4-8 TCR. […] To document direct effects of these small molecules on inhibiting peptide binding to I-A^g^7, an I-A^g^7 protein construct was expressed in baculovirus with a linked peptide. The flexible linker contained a thrombin cleavage site, allowing for thrombin cleavage of the linker and release of the peptide."}, "[2]": {"tested_on": "T cell response to the autoantigen, amino acids 9-23 in the B chain of insulin", "test": "Inhibition of T cell response to insulin B chain amino acids 9-23", "assay_type": "cell-based, mouse", "description": "(§2) This molecule inhibited the insulin presentation to T cells capable of causing diabetes in mice and T cells responding to insulin in humans. […] Specificity was shown by using the molecule to inhibit tetramer binding (I-A^g^7 complexed to insulin peptides) to T cells."}, "[3]": {"tested_on": "489 TCR transfectoma, deamidated α-gliadin", "test": "Ex vivo biomarker assay in DQ8 humanized mice, 489 TCR transfectoma with deamidated α-gliadin", "conditions": "pooled PBMCs from treated mice", "protocol": "(§3) TATD was further evaluated in humanized DQ8 mice. These mice are on a NOD background, I-A null, and contain transgenes for DQ8 and human CD4 (NOD, I-A^g^7 null, DQ8 transgene, Rag KO). TATD was used to develop a rapid ex vivo biomarker assay to monitor the effects of small molecules on antigen presentation in DQ8 humanized mice. To identify a biomarker, mice were treated in vivo with TATD (either by intraperitoneal injection or gastric gavage) and isolated splenocytes or peripheral blood mononuclear cells (PBMCs) were used to monitor antigen presentation to DQ8 restricted T cell receptor (TCR) transfectomas.\n(§4) Using this biomarker assay, DQ8 humanized mice were treated with a single intraperitoneal dose of TATD (20 mg/kg) and then sacrificed 2 hours later. Splenocytes from treated mice were cultured with the insulin B:13-23 antigen in the presence of clone 5 TCR transfectomas, or deamidated α-gliadin in the presence of the 489 TCR transfectoma. No TATD was added in vitro to the stimulation assays. Control mice received IP injections of PBS (the vehicle in which TATD is dissolved)."}, "[4]": {"tested_on": "I-A^g^7", "test": "Soluble binding assay, B:9-23 peptide to empty I-A^g^7", "set-up": "species or system mouse", "conditions": "dose dependent"}, "[5]": {"tested_on": "NOD mice", "test": "Insulin autoantibody production and diabetes onset in NOD mice", "assay_type": "in vivo, mouse", "conditions": "20 mg/kg IP daily from 4 to 12 weeks of age", "protocol": "To test the efficacy of this molecule in vivo, Jackson NOD mice were treated with TATD at a dose of 20 mg/kg IP daily starting at 4 weeks of age. Treatment ceased at 12 weeks of age. Insulin autoantibody (IAA) was measured before treatment at 8, 10, 12, 16, 20, and 24 weeks of age."}, "[6]": {"tested_on": "clone 5 TCR transfectomas, insulin B:13-23 antigen", "test": "Ex vivo biomarker assay in DQ8 humanized mice, clone 5 TCR transfectomas with insulin B:13-23", "protocol": "as §3, §4"}, "[7]": {"target": "DQ8 (Homo sapiens, UniProt P01909+P01920, A209T/A45G/C70Q/D89A/DUP78-78/E183D/E77G/F237L/G63E/H199R/I129T/K197E/L178F/L74F/L98V/Q57E/Q76R/S185I/S97I/T217I/T49S/V73L/Y58L)", "test": "Competitive binding assay B:9-23 to DQ8"}, "[8]": {"tested_on": "DQ8 restricted T cell receptor (TCR) transfectomas", "test": "Ex vivo biomarker assay in DQ8 humanized mice, duration and oral route"}, "[9]": {"tested_on": "5KC cells transduced with a 4-8 TCR", "test": "Endogenous insulin presentation: whole insulin with I-A^g^7 splenocytes and 4-8 TCR transduced 5KC cells", "assay_type": "cell-based, mouse", "protocol": "as §1"}, "[10]": {"target": "T1, I-A^b complexed to a 3K peptide (Mus musculus, UniProt P14434+P14483)", "T1 sequence (P14434 24-218 limits assumed)": "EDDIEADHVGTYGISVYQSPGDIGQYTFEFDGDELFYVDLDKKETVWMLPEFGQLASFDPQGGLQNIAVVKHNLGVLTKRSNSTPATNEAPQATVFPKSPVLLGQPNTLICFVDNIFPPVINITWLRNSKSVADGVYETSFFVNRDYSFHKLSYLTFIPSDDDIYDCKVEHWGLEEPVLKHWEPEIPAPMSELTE", "T1 sequence (P14483 28-226 limits assumed)": "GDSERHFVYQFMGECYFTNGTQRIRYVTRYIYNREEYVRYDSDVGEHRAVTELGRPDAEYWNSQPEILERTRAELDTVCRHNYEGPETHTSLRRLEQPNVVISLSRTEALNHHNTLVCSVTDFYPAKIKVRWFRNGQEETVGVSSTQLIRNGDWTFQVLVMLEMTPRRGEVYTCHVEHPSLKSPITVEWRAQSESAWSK", "test": "Tetramer staining, I-A^b complexed to a 3K peptide", "assay_type": "cell-based", "conditions": "specificity control"}, "[11]": {"tested_on": "I-A^g^7 complexed to insulin peptides", "test": "Tetramer staining, I-A^g^7 complexed to insulin peptides", "assay_type": "cell-based, mouse", "description": "as §2"}, "[12]": {"tested_on": "Anti-CD3 stimulation", "test": "Anti-CD3 stimulation control in ex vivo biomarker assay", "set-up": "species or system DQ8 humanized mice", "conditions": "mouse", "protocol": "The IL-2 response from the TCR transfectomas using splenocytes harvested within 2 hours from TATD treated mice was abrogated compared to PBS treated controls (FIGS. 13A and 13B). Anti-CD3 stimulation was not inhibited in the presence of TATD."}, "[13]": {"tested_on": "human T cell receptor recognizing insulin B:9-23 presented by human DQ8", "test": "Inhibition of human T cell receptor recognizing insulin B:9-23 presented by human DQ8", "assay_type": "cell-based", "description": "Using a TCR sequence obtained from a T cell line generated from the peripheral blood of a diabetic individual with DQ8 molecule, a TCR was identified that is DQ8 restricted and responds to the insulin B:9-23 peptide.\nMolecules predicted to occupy pockets 1 and 9 of the human DQ8 peptide binding groove were identified using in silico molecular docking program. The top scoring compounds for each pocket were screened for their ability to inhibit anti-B:9-23 T cell responses. FIGS. 9A and 9B represent the results of the T cell stimulation assay for compounds occupying pocket 1 and pocket 9 of the human DQ8 peptide binding groove, respectively."}}, "data": [{"smiles": "C1CN2CN3CCN(CN1C3)C2", "note": "[TATD, 1,3,6,8-tetraazatricyclo (4.4.1.1(3,8)) dodecane]", "values": [{"measurement": "Inhibition of TCR response to whole islets", "setting": "[1]", "result": "able to inhibit endogenous antigen presentation"}, {"measurement": "Concentration inhibiting T cell response to insulin B:9-23", "setting": "[2]", "result": "low nanomolar"}, {"measurement": "489 TCR transfectoma response to deamidated α-gliadin presented by PBMCs", "setting": "[3]", "result": "the same response is seen"}, {"measurement": "Inhibition of B:9-23 peptide binding to I-A^g^7", "setting": "[4]", "result": "block peptide binding"}, {"measurement": "Diabetes onset", "setting": "[5]", "result": "prevents diabetes onset"}, {"measurement": "Insulin autoantibody (IAA) formation", "setting": "[5]; IAA up to 24 weeks", "result": "blocks IAA formation"}, {"measurement": "Clone 5 response to insulin B:13-23 presented by PBMCs", "setting": "[6]; pooled PBMCs from treated mice", "result": "blocked"}, {"measurement": "IL-2 response of clone 5 TCR transfectomas, splenocytes", "setting": "[6]; single 20 mg/kg IP dose, splenocytes harvested within 2 hours, vs PBS controls", "result": "abrogated"}, {"measurement": "Block of peptide binding to DQ8", "setting": "[7]", "result": "block peptide binding"}, {"measurement": "IC50", "setting": "[7]", "result": 4.5, "unit": "pM"}, {"measurement": "Blocking IL-2 production from the TCR transfectomas", "setting": "[8]; gastric gavage", "result": "effective at blocking IL-2 production"}, {"measurement": "Oral absorption", "setting": "[8]; gastric gavage", "result": "orally absorbed"}, {"measurement": "Duration of effects on antigen presentation", "setting": "[8]; single dose", "result": 7, "unit": "days"}, {"measurement": "Inhibition of endogenous antigen presentation of whole insulin by antigen presenting cells", "setting": "[9]", "result": "able to inhibit endogenous antigen presentation"}, {"measurement": "T cell staining with I-A^b / 3K peptide tetramer", "setting": "[10]", "result": "did not alter T cell staining"}, {"measurement": "Tetramer staining of T cells recognizing insulin B:9-23 presented by I-A^g^7", "setting": "[11]", "result": "inhibited tetramer staining"}, {"measurement": "Anti-CD3 stimulation", "setting": "[12]", "result": "not inhibited"}, {"measurement": "Concentration inhibiting antigen presentation by human DQ8 to T cells involved in type 1 diabetes", "setting": "[13]", "result": "low nanomolar"}]}]}
